# Measurements: patent US20150240295A1, “REACTIVE, LIPOPHILIC NUCLEOSIDE BUILDING BLOCKS FOR THE SYNTHESIS OF HYDROPHOBIC NUCLEIC ACIDS” (IONOVATION GMBH, priority 2012, published 2015)
# Experiments:
# 786-0 cells = assay: Oncological test, cell growth against 786-0; type: cell-based; conditions: FIGS. 16 and 17
# Text: (§1) FIGS. 10 to 17 show the activity of compounds ESP—2.2, ESP—2.5 and ESP—31 according to the invention as well as the comparative examples ESP—2 and ESP—3 (Table 4) in relation to the concentration employed against various different cancer cells. […] The x-axis depicts the molar concentration of the respective compound on a logarithmical scale.
# OVCAR-5 = assay: Oncological test, cell growth against OVCAR-5; type: cell-based, human; conditions: FIGS. 10 and 11
# Text: as §1
# IGR-OV1 = assay: Oncological test, cell growth against IGR-OV1; type: cell-based, human; conditions: FIGS. 12 and 13
# Text: as §1
# various cancer cells = assay: Oncological tests, summary of FIGS. 10 to 17; type: cell-based; conditions: ovarian, colon and kidney cancer cells
# Text: as §1
# HCT-15 cells = assay: Oncological test, cell growth against HCT-15; type: cell-based, human; conditions: for cell growth (inhibition / cytotoxic effect): FIGS. 14 and 15
# Text: as §1
Compound,cell growth (inhibition / cytotoxic effect) (786-0 cells),cell growth (inhibition / cytotoxic effect) (OVCAR-5),cell growth (inhibition / cytotoxic effect) (IGR-OV1),cell growth (inhibition / cytotoxic effect) (HCT-15 cells),melting point [°C],other results
CCOC(=O)CC[C@]1(C)OC2[C@@H](CO)O[C@@H](n3ncc(=O)n(C/C=C(\C)CCC=C(C)CCC=C(C)C)c3=O)[C@H]2O1 (stereo partly drawn) [ESP—2.5],high cytotoxic effect,high cytotoxicity,improved inhibition effect,increased activity,–,activity / cytotoxicity against various cancer cells (various cancer cells): particular high cytotoxicity; death of the cells (HCT-15 cells; high dosage): over 50%
"O=c1cnn([C@@H]2O[C@H](CO)[C@@H](O)[C@H]2O)c(=O)[nH]1 [ESP—2, 6-azauridine, reference compound]",–,no activity,slight inhibition,slight inhibition of the growth of the cells,–,–
"O=c1ccn([C@@H]2O[C@H](CO)[C@@H](O)[C@H]2O)c(=O)[nH]1 [ESP—3, uridine, reference compound]",did not show any activity at all,no activity,did not even cause a growth inhibition,–,–,–
CCCCCCCCCC1(CCCCCCCCC)OC2[C@@H](CO)O[C@@H](n3ccc(=O)[nH]c3=O)[C@H]2O1 (stereo partly drawn) [ESP—31],cytotoxic effect,cytotoxicity,vast improvement with respect to the cytotoxic activity,high cytotoxic activity,–,–
"COc1ccc(C(OC[C@H]2O[C@@H](n3cnc4c(=O)n(C/C=C(\C)CCC=C(C)C)cnc43)C[C@@H]2O)(c2ccccc2)c2ccc(OC)cc2)cc1 [Compound 4a, 9-((2R,4S,5R)-5-((Bis(4-methoxyphenyl)(phenyl)methoxy)-methyl)-4-hydroxytetrahydrofuran-2-yl)-1-((E)-3,7-di-methylocta-2,6-dienyl)-1H-purin-6(9H)-one]",–,–,–,–,74,–
"CCCCCCCCCCCCCC1(CCCCCCCCCCCCC)O[C@@H]2[C@H](O1)[C@@H](CO)O[C@H]2n1ccc(=O)[nH]c1=O [Compound 25c, 1-((3aR,4R,6R,6aR)-6-(hydroxymethyl)-2,2-ditridecyltetrahydrofuro[3,4-d][1,3]dioxol-4-yl)pyrimidin-2,4(1H,3H)-dione]",–,–,–,–,90.1,–
"CCCCCCCCCCCCCCCCCC1(CCCCCCCCCCCCCCCCC)OC2C(CO)OC(n3ccc(=O)[nH]c3=O)C2O1 (stereo not drawn) [Compound 25e, 1-(2,2-Diheptadecyl-6-hydroxymethyl-tetrahydro-furo[3,4-d][1,3]dioxol-4-yl)-1H-pyrimidin-2,4-dione]",–,–,–,–,89.7,–
"COc1ccc(C(OC[C@H]2O[C@@H](n3cnc4c(=O)n(C/C=C(\C)CC/C=C(\C)CCC=C(C)C)cnc43)C[C@@H]2O)(c2ccccc2)c2ccc(OC)cc2)cc1 [Compound 4b, 9-((2R,4S,5R)-5-((Bis(4-methoxyphenyl)(phenyl)methoxy)-methyl)-4-hydroxytetrahydrofuran-2-yl)-1-((2E,6E)-3,7,11-trimethyldodeca-2,6,10-trienyl)-1H-purin-6(9H)-on]",–,–,–,–,68,–
CCOC(=O)CC[C@@]1(C)OC2C(O1)[C@@H](COC(c1ccccc1)(c1ccccc1)c1ccc(OC)cc1)O[C@H]2n1ncc(=O)[nH]c1=O (stereo partly drawn) [ESP—2.2],–,inhibition of cell growth,activity of the compound could be increased,increased activity,–,–
"CCCCCCCCCCCCCCCC1(CCCCCCCCCCCCCCC)OC2C(CO)OC(n3ccc(=O)[nH]c3=O)C2O1 (stereo not drawn) [Compound 25d, 1-(6-Hydroxymethyl-2,2-dipentadecyl-tetrahydro-furo[3,4-d][1,3]dioxol-4-yl)-1H-pyrimidin-2,4-dione]",–,–,–,–,93,–
